Laboratory results from patent publication US20250340551A1, “SMALL MOLECULE MODULATORS OF STAT6” (Gilead Sciences, Inc., priority 2024, published 2025).

Biological target: human STAT6 (Homo sapiens (Human), UniProt P42226)
Assay: Surface plasmon resonance assay (Biacore 8K, binding to immobilized STAT6)
Settings: human STAT6 aa122-658, N-terminal His-tag, CM5 chip, 25° C.; geometric mean; read-out: STAT6 SPR Kd
Procedure: Biacore instruments from the 8K-series (Cytiva) were used, and measurements were performed at 25° C. Human STAT6 (truncated, aa122-658, with N-terminal His-tag, expressed in insect cells) was immobilized in the active flow cells on a CM5 chip using amine-coupling (default settings) at 10 μg/ml in 10 mM acetate buffer pH 5.5, at a contact time of 120-420 sec. and a flow rate of 10 μl/min. Reference flow cells were deactivated using blank immobilization. PBS-P+ (Cytiva) supplemented with 2% DMSO was used as running buffer, and solvent correction was applied. Compounds were tested by multi-cycle kinetics injections using a contact time of 60 sec., dissociation time of up to 300 sec., and a flow rate of 30 μl/min.
Solvent-corrected, reference-subtracted and blank-corrected data was processed and binding isotherms were fitted according to a single report point from each sensorgram (Standard: Late binding (5 sec. before injection end); alternative: Earlier report point according to binding profile). Data fitting was done both with unfixed Rmax and with Rmax fixed to the theoretical value* assuming 1:1 binding to allow processing of data from both weak and strong binders as well as to evaluate binding stoichiometry.
Positive controls were run at the beginning, during, and at the end of the screen to evaluate surface activity.

Chain of human STAT6 (P42226 122-658): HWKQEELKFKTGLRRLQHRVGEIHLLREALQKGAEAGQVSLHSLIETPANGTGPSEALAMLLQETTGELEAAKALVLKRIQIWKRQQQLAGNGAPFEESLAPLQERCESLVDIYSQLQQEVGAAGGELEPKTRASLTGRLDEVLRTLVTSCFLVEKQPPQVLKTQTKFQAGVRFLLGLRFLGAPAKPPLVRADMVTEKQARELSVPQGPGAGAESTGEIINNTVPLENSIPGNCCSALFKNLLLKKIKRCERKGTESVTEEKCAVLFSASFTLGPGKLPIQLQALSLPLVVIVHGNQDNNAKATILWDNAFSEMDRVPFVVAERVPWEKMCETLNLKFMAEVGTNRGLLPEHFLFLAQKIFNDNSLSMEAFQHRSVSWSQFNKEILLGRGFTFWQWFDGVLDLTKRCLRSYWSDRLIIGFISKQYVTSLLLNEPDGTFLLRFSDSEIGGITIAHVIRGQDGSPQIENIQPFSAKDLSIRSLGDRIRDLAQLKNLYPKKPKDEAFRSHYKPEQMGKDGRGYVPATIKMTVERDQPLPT

In order of rising Kd:
1. CN(C)C(=O)c1ccc(C2CCN(Cc3cc4c(-c5ccc(N)nn5)ccnc4n3C)CC2)cc1 [Example 1k68, 4-[1-[[4-(6-Aminopyridazin-3-yl)-1-methyl-pyrrolo[2,3-b]pyridin-2-yl]methyl]-4-piperidyl]-N,N-dimethyl-benzamide]  13.5 nM
2. [2H]C([2H])([2H])N(C(=O)c1ccc(C2=CCN([C@H](C)c3cc4c(-c5ccc(N)cn5)ccnc4n3C)CC2)c(C)c1)C([2H])([2H])[2H] [Example 1af33, (R)-4-(1-(1-(4-(5-aminopyridin-2-yl)-1-methyl-1H-pyrrolo[2,3-b]pyridin-2-yl)ethyl)-1,2,3,6-tetrahydropyridin-4-yl)-3-methyl-N,N-bis(methyl-d3)benzamide]  15.4 nM
3. Cc1cc(C(=O)N(C)C)ccc1C1=CCN([C@H](C)c2cc3c(-c4ccc(N)cn4)ccnc3n2C)CC1 [Example 1af34, (R)-4-(1-(1-(4-(5-aminopyridin-2-yl)-1-methyl-1H-pyrrolo[2,3-b]pyridin-2-yl)ethyl)-1,2,3,6-tetrahydropyridin-4-yl)-N,N,3-trimethylbenzamide]  18.6 nM
4. CN(C)C(=O)c1ccc(C2CCN(Cc3cc4c(-c5cnc(N)cc5C(F)F)ccnc4n3C)CC2)cc1 [Example 1k52, 4-[1-[[4-[6-Amino-4-(difluoromethyl)-3-pyridyl]-1-methyl-pyrrolo[2,3-b]pyridin-2-yl]methyl]-4-piperidyl]-N,N-dimethyl-benzamide]  53.5 nM
5. CNc1ccc(-c2ccnc3c2cc(CN2CCN(c4ccc(C(=O)N(C)C)cc4)CC2=O)n3C)cn1 [Example 1s5, N,N-Dimethyl-4-[4-[[1-methyl-4-[6-(methylamino)-3-pyridyl]pyrrolo[2,3-b]pyridin-2-yl]methyl]-3-oxo-piperazin-1-yl]benzamide]  70.6 nM
6. CNc1ccc(-c2ccnc3c2cc(CN2CCC(c4ncc(C(=O)N(C)C)cc4C)CC2)n3C)cn1 [Example 1s15, N,N,5-Trimethyl-6-[1-[[1-methyl-4-[6-(methylamino)-3-pyridyl]pyrrolo[2,3-b]pyridin-2-yl]methyl]-4-piperidyl]pyridine-3-carboxamide]  119 nM
7. CNC(=O)c1ccc(C2CCN(Cc3cc4c(-c5ccc(N)nc5C#N)ccnc4n3C)CC2)cc1 [Example 1ae14, 4-[1-[[4-(6-Amino-2-cyano-3-pyridyl)-1-methyl-pyrrolo[2,3-b]pyridin-2-yl]methyl]-4-piperidyl]-N-methyl-benzamide]  194 nM
8. CC(=O)Nc1ccc(-c2ccnc3c2cc(CN2CC[C@@H](c4ccc(C(=O)N(C)C)cc4)[C@H](C)C2=O)n3C)cc1 (single isomer, unassigned) [Example 1aa2]  203 nM
9. CN(C)C(=O)c1ccc(C2CCN(Cc3cc4c(-c5cnc(N)c(CO)c5)ccnc4n3C)CC2)cc1 [Example 1k34, 4-[1-[[4-[6-Amino-5-(hydroxymethyl)-3-pyridyl]-1-methyl-pyrrolo[2,3-b]pyridin-2-yl]methyl]-4-piperidyl]-N,N-dimethyl-benzamide]  245 nM
10. CC(=O)Nc1cc(C)c(-c2ccnc3c2cc(CN2CCC(c4ccc(C(=O)N(C)C)cc4)CC2)n3C)cn1 [Example 1k28, 4-[1-[[4-(6-Acetamido-4-methyl-3-pyridyl)-1-methyl-pyrrolo[2,3-b]pyridin-2-yl]methyl]-4-piperidyl]-N,N-dimethyl-benzamide]  428 nM
11. CN(C)C(=O)c1ccc(C2CCN(Cc3cc4c(-c5cnc(N)c(O)c5)ccnc4n3C)CC2)cc1 [Example 1k50, 4-[1-[[4-(6-Amino-5-hydroxy-3-pyridyl)-1-methyl-pyrrolo[2,3-b]pyridin-2-yl]methyl]-4-piperidyl]-N,N-dimethyl-benzamide]  557 nM
12. [2H]C([2H])([2H])N(C(=O)c1ccc(C2CCN([C@@H](C)c3cc4c(-c5ccc(N)cn5)ccnc4n3C)CC2)cc1)C([2H])([2H])[2H] [Example 1af35, (S)-4-(1-(1-(4-(5-Aminopyridin-2-yl)-1-methyl-1H-pyrrolo[2,3-b]pyridin-2-yl)-ethyl)piperidin-4-yl)-N,N-bis(methyl-d3)benzamide]  605 nM
13. CN(C)C(=O)c1ccc(C2CCN(Cc3cc4c(-c5cnc(N)c(C#N)n5)ccnc4n3C)CC2)cc1 [Example 1k57, 4-[1-[[4-(5-Amino-6-cyano-pyrazin-2-yl)-1-methyl-pyrrolo[2,3-b]pyridin-2-yl]methyl]-4-piperidyl]-N,N-dimethyl-benzamide]  766 nM
14. CN(C)C(=O)c1ccc(C2CCN(Cc3cc4c(-c5cnc(N)c(N(C)C)c5)ccnc4n3C)CC2)cc1 [Example 1k47, 4-[1-[[4-[6-Amino-5-(dimethylamino)-3-pyridyl]-1-methyl-pyrrolo[2,3-b]pyridin-2-yl]methyl]-4-piperidyl]-N,N-dimethyl-benzamide]  1210 nM
15. Cc1cc(N)cc(C)c1-c1ccnc2c1cc(CN1CCC(c3ccc(C(=O)N(C)C)cc3)CC1)n2C [Example 1k32, 4-[1-[[4-(4-Amino-2,6-dimethyl-phenyl)-1-methyl-pyrrolo[2,3-b]pyridin-2-yl]methyl]-4-piperidyl]-N,N-dimethyl-benzamide]  1230 nM
16. CNc1ccc(-c2ccnc3c2cc([C@@H](C)N2CCC(c4ccc(C(=O)N(C)C)cc4)CC2)n3C)nc1 [Example 1o25, (R)—N,N-dimethyl-4-(1-(1-(1-methyl-4-(5-(methyl-amino)pyridin-2-yl)-1H-pyrrolo[2,3-b]pyridin-2-yl)ethyl)piperidin-4-yl)benzamide]  1350 nM
17. C[C@@H](c1cc2c(-c3ccc(N)cn3)ccnc2n1C)N1CC=C(c2ccc(C(=O)N(C)C)cc2)CC1 [Example 1af19, (S)-4-(1-(1-(4-(5-Aminopyridin-2-yl)-1-methyl-1H-pyrrolo[2,3-b]pyridin-2-yl)ethyl)-1,2,3,6-tetrahydropyridin-4-yl)-N,N-dimethylbenzamide]  2360 nM
18. CN(C)C(=O)c1ccc(C2CCN(Cc3cc4c(-c5cnc(N)cc5C(F)(F)F)ccnc4n3C)CC2)cc1 [Example 1k27, 4-[1-[[4-[6-Amino-4-(trifluoromethyl)-3-pyridyl]-1-methyl-pyrrolo[2,3-b]pyridin-2-yl]methyl]-4-piperidyl]-N,N-dimethyl-benzamide]  5030 nM
19. Cc1cc(C(=O)N(C)C)ccc1C1CCN([C@H](C)c2cc3c(-c4ccc(N)nc4C#N)ccnc3n2C)CC1 [Example 1af28, (R)-4-(1-(1-(4-(6-amino-2-cyanopyridin-3-yl)-1-methyl-1H-pyrrolo[2,3-b]pyridin-2-yl)ethyl)piperidin-4-yl)-N,N,3-trimethylbenzamide]  5310 nM
20. C[C@@H]1C[C@@H](c2ccc(C(=O)N(C)C)cc2)CCN1Cc1cc2c(-c3ccc(N)cn3)ccnc2n1C (single isomer, unassigned) [Example 1q7]  5350 nM
21. CN(C)C(=O)c1ccc(C2CCN(Cc3cc4c(-c5ncc(N)cc5C(F)(F)F)ccnc4n3C)CC2)cc1 [Example 1k74, 4-[1-[[4-[5-Amino-3-(trifluoromethyl)-2-pyridyl]-1-methyl-pyrrolo[2,3-b]pyridin-2-yl]methyl]-4-piperidyl]-N,N-dimethyl-benzamide]  7290 nM
22. CNC(=O)c1ccc(-c2ccnc3c2cc(CN2CCN(c4ccc(C(=O)N(C)C)cc4)CC2)n3C)cc1 [Example 1j6, 4-[2-[[4-[4-(Dimethylcarbamoyl)phenyl]piperazin-1-yl]methyl]-1-methyl-pyrrolo[2,3-b]pyridin-4-yl]-N-methyl-benzamide]  37200 nM
